# Assay results published in the supplement of paper PMC11061612.
# Tests used:
# Experiment in all cases: combination Emax (second highest fraction inhibited in the dose matrix, 72 h); higher = more inhibition; extreme values may be limits of the assay
# [1] = tested on: HT-3 (Cervical Carcinoma)
# Method in brief: (§1)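 Cell lines in DMEM/F12 or RPMI with 10% FBS were plated in 1536-well plates, held 24 hours at 37°C, 5% CO2, then given two-drug dose matrices for 72 hours (DMSO typically 0.2%). Viability was read by CellTiter-Glo 2.0 luminescence and scaled as inhibition from 0 (vehicle wells) to 1 (blank wells). Combination Emax is the second-highest inhibition in the matrix; Bliss excess is observed combination effect minus expected EA + EB − EA·EB, EA and EB being single-agent effects.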
# [2] = tested on: MG-63 (Osteosarcoma)
# Method in brief: as §1
# [3] = tested on: OVKATE (Ovarian Carcinoma)
# Method in brief: as §1
# [4] = tested on: JURL-MK1 (Chronic Myelogenous Leukemia)
# Method in brief: as §1
# [5] = tested on: SK-MEL-24 (Melanoma)
# Method in brief: as §1
# [6] = tested on: BC-1 (B-Cell Non-Hodgkin's Lymphoma)
# Method in brief: as §1
# [7] = tested on: SBC-5 (Small Cell Lung Carcinoma)
# Method in brief: as §1
# [8] = tested on: RS4-11 (B-Lymphoblastic Leukemia)
# Method in brief: as §1
# [9] = tested on: SBC-3 (Small Cell Lung Carcinoma)
# Method in brief: as §1
# [10] = tested on: C2BBe1 (Colorectal Carcinoma)
# Method in brief: as §1
# [11] = tested on: COR-L105 (Lung Adenocarcinoma)
# Method in brief: as §1
# [12] = tested on: NCI-H1435 (Non-Small Cell Lung Carcinoma)
# Method in brief: as §1
# [13] = tested on: IGROV-1 (Ovarian Carcinoma)
# Method in brief: as §1
# [14] = tested on: CAL-85-1 (Breast Carcinoma)
# Method in brief: as §1
# [15] = tested on: SW1463 (Colorectal Carcinoma)
# Method in brief: as §1
# [16] = tested on: NCI-H2452 (Mesothelioma)
# Method in brief: as §1
# [17] = tested on: MRK-nu-1 (Breast Carcinoma)
# Method in brief: as §1
# [18] = tested on: SUP-HD1 (Hodgkin's Lymphoma)
# Method in brief: as §1
# [19] = tested on: NTERA-2-cl-D1 (Other Solid Carcinomas)
# Method in brief: as §1
Compound,combination Emax [1],combination Emax [2],combination Emax [3],combination Emax [4],combination Emax [5],combination Emax [6],combination Emax [7],combination Emax [8],combination Emax [9],combination Emax [10],combination Emax [11],combination Emax [12],combination Emax [13],combination Emax [14],combination Emax [15],combination Emax [16],combination Emax [17],combination Emax [18],combination Emax [19]
"Cc1c2c(nn1C)CSCc1cc(n(C)n1)CSc1cc(c3ccccc3c1)OCCCc1c(C(=O)O)n(C)c3c-2c(Cl)ccc13 [AZD5991] + Cc1cc2ncnn2cc1Nc1ncc2c(n1)n(C1CCOCC1)c(=O)n2C [AZD7648] (first compound max 1 µM, 7x7, partner max 10 µM)",0.353,0.329,0.284,0.773,0.232,1,0.419,0.501,0.456,0.356,0.33,0.211,0.625,0.402,0.223,0.409,1,0.576,0.662
"Cc1c2c(nn1C)CSCc1cc(n(C)n1)CSc1cc(c3ccccc3c1)OCCCc1c(C(=O)O)n(C)c3c-2c(Cl)ccc13 [AZD5991] + CC1(C)CCC(CN2CCN(c3ccc(C(=O)NS(=O)(=O)c4ccc(NCC5CCOCC5)c([N+](=O)[O-])c4)c(Oc4cnc5[nH]ccc5c4)c3)CC2)=C(c2ccc(Cl)cc2)C1 [Venetoclax] (first compound max 1 µM, 7x7, partner max 1 µM)",0.597,0.199,0.147,0.695,0.336,1,0.231,1,0.69,0.23,0.181,0.206,0.469,0.122,0.131,0.305,1,0.959,0.916
"Cc1c2c(nn1C)CSCc1cc(n(C)n1)CSc1cc(c3ccccc3c1)OCCCc1c(C(=O)O)n(C)c3c-2c(Cl)ccc13 [AZD5991] + C1CN(CCC1(C(=O)N[C@@H](CCO)C2=CC=C(C=C2)Cl)N)C3=NC=NC4=C3C=CN4 [Capivasertib] (first compound max 1 µM, 7x7, partner max 3 µM)",0.307,0.228,0.273,0.729,0.439,1,0.471,0.519,0.334,0.251,0.248,0.179,0.767,0.145,0.216,0.253,1,0.777,0.529
"CCN(CCO)CCCOc1ccc2c(Nc3cc(CC(=O)Nc4cccc(F)c4)[nH]n3)ncnc2c1 [AZD2811] + C=CCn1c(=O)c2cnc(Nc3ccc(N4CCN(C)CC4)cc3)nc2n1-c1cccc(C(C)(C)O)n1 [AZD1775] (first compound max 1 µM, partner max 1 µM)",0.241,0.393,0.233,0.995,0.414,0.989,0.732,0.965,0.539,0.274,0.331,0.143,0.755,0.297,0.48,0.574,0.373,0.841,0.845
"CC1(C)CCC(CN2CCN(c3ccc(C(=O)NS(=O)(=O)c4ccc(NCC5CCOCC5)c([N+](=O)[O-])c4)c(Oc4cnc5[nH]ccc5c4)c3)CC2)=C(c2ccc(Cl)cc2)C1 [Venetoclax] + C[C@@H]1COCCN1C2=NC(=NC(=C2)C3(CC3)[S@](=N)(=O)C)C4=C5C=CNC5=NC=C4 [AZD6738] (first compound max 1 µM, 7x7, partner max 10 µM)",0.452,0.494,0.407,1,0.454,0.933,0.792,1,0.926,0.461,0.421,0.177,0.759,0.571,0.411,0.573,0.665,0.911,0.881
"Cc1c2c(nn1C)CSCc1cc(n(C)n1)CSc1cc(c3ccccc3c1)OCCCc1c(C(=O)O)n(C)c3c-2c(Cl)ccc13 [AZD5991] + CN(C)CCCOc1ccc(-c2ccc3ncc4c(c3c2)n(C2CCOCC2)c(=O)n4C)cn1 [AZD0156] (first compound max 1 µM, 7x7, partner max 1 µM)",0.479,0.251,0.247,0.734,0.232,1,0.497,0.565,0.292,0.288,0.258,0.233,0.606,0.206,0.204,0.372,1,0.617,0.589
